The values below come from US7524844B2, “Dipeptidyl peptidase IV inhibitors, process for their preparation and compositions containing them” (Glenmark Pharmaceuticals S.A., priority 2004, dated 2009).

Where a name gives a salt, the structure may show the parent alone.

The target in the assay is T1, human recombinant Dipeptidyl peptidase IV enzyme (DPP-IV) (Homo sapiens, UniProt P27487).
T1 construct: purchased R&D Systems Inc. of Minneapolis, Minn
T1 sequence (P27487 whole entry): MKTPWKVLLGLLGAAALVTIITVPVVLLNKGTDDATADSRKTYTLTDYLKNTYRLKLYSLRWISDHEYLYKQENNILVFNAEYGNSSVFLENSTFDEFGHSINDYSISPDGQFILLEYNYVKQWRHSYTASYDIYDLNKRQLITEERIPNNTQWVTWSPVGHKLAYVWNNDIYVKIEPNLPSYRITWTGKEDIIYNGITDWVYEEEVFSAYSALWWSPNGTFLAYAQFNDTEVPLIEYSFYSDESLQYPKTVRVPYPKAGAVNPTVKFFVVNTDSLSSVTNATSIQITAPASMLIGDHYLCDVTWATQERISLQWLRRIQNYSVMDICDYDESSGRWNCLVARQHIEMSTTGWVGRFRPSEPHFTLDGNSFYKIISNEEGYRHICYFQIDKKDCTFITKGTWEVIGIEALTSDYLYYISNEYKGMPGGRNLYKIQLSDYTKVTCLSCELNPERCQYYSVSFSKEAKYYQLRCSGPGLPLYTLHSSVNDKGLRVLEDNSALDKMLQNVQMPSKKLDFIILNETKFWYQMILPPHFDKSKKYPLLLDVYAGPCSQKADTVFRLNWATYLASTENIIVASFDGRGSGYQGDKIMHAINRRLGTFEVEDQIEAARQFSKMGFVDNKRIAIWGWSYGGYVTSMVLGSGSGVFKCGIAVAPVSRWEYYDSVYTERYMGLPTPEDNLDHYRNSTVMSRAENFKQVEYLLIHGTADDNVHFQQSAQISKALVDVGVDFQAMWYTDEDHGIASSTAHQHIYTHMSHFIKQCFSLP
The experiment in a line: in-vitro DPP-IV assay (cleavage of AMC from Gly-Pro-AMC). In kind it is biochemical. As to conditions: human recombinant DPP-IV, Gly-Pro-AMC substrate, 30° C., 30 minutes; read-out: DPP-IV inhibition using human recombinant DPP-IV enzyme, IC50. The protocol:
DPP-IV activity was determined by the cleavage rate of 7-amino-4-methyl coumarin (AMC) from the synthetic substrate Glycyl-Prolyl-AMC. In brief, the assay was conducted by adding 10 ng of human recombinant Dipeptidyl peptidase IV enzyme (DPP-IV, available commercially from R&D Systems Inc. of Minneapolis, Minn.) in 50 μl of the assay buffer (25 mM Tris, pH 7.4, 140 mM NaCl, 10 mM KCl, 1% BSA) to 96 well black flat bottom microtiter plates. The reaction was initiated by adding 50 μl of 100 μM substrate Gly-Pro-AMC. The incubation was carried out in the kinetic mode at 30° C. for 30 minutes. Fluorescence was measured using Fluorostar with an excitation filter of 380 nm and emission filter of 460 nm. Test compounds and solvent controls were added as 1 μl additions. A standard curve of free amino methyl coumarin (AMC) was generated using 0-100 μM AMC in the assay buffer. The curve generated, which was linear was used for the interpolation of catalytic activity.
Test compounds dissolved in DMSO at 5-6 concentrations were tested in duplicate along with the solvent control and blank samples. Percent inhibition was calculated at each concentration with respect to the solvent control sample (no test compound added). […]
Turning to `N#C[C@@H]1C[C@H](F)CN1C(=O)CN[C@@H]1CC[C@H](Cn2cncn2)C1` [Example-44, (2S,4S)-1-{2-1(3S,1R)-3-(1H-1,2,4-Triazol-1-ylmethyl)cyclopentylamino]acetyl}-4-fluoropyrrolidine-2-carbonitrile methanesulfonate], the IC50 (in general, the midpoint of a concentration-inhibition curve) was 3.73 nM. As to `N#C[C@@H]1C[C@H](F)CN1C(=O)CN[C@H]1CC[C@@H](Cn2nccn2)C1` [Example-58, (2S,4S)-1-{2-[(1S,3R)-3-(2H-1,2,3-Triazol-2-ylmethyl)cyclopentylamino]acetyl}-4-fluoropyrrolidine-2-carbonitrile], the IC50 stood at 10.6 nM. Regarding `CN1CCN(CC2CCC(NCC(=O)N3CCC[C@H]3C#N)C2)CC1` (mixture of isomers) [Example-20, (2S)-1-{2-[(3SR,1RS)-3-(4-Methylpiperazinomethyl)cyclopentylamino]acetyl}-pyrrolidine-2-carbonitrile], the IC50 is 123 nM.

Regarding `N#C[C@@H]1CCCN1C(=O)CN[C@@H]1CC[C@H](CN2CCOCC2)C1` [Example-19, (2S)-1-{2-[(3S,1R)-3-Morpholinomethylcyclopentylamino]acetyl}pyrrolidine-2-carbonitrile], the half-inhibitory concentration (IC50) was 20.1 nM.

In the case of `N#C[C@@H]1C[C@H](F)CN1C(=O)CN[C@@H]1CC[C@H](Cn2cncn2)C1` [Example-46, (2S,4S)-1-{2-[(3S,1R)-3-(1H-1,2,4-Triazol-1-ylmethyl)cyclopentylamino]acetyl}-4-fluoropyrrolidine-2-carbonitrile succinate], the concentration for half-maximal inhibition (IC50) stood at 4.37 nM. With `Cc1ccc(C)n1C[C@H]1CC[C@@H](NCC(=O)N2CCC[C@H]2C#N)C1` [Example-24, (2S)-1-{2-[(3S,1R)-3-(2,5-Dimethyl-1H-1-pyrrolylmethyl)cyclopentylamino}acetyl}-pyrrolidine-2-carbonitrile], the concentration for half-maximal inhibition (IC50) worked out at 4.19 nM. On to `N#Cc1cccn1C[C@H]1CC[C@@H](NCC(=O)N2CCC[C@H]2C#N)C1` [Example-26, 1-((1S,3R)-3-{2-[(2S)-2-Cyanopyrrolidin-1-yl]-2-oxoethylamino}cyclopentylmethyl)-1H-pyrrole-2-carbonitrile], for which the IC50 turned out to be 5.94 nM. With `N#C[C@@H]1CCCN1C(=O)CNC1CCC(C(N)=O)C1` (mixture of isomers) [Example-1, (1SR,3RS)-3-{2-[(2S)-2-Cyanopyrrolidin-1-yl]-2-oxoethylamino}cyclopentane-1-carboxamide], the 50% inhibitory concentration (IC50) was found to be 163 nM. With `N#C[C@@H]1CCCN1C(=O)CN[C@H]1CC[C@@H](Cn2cnnn2)C1` [Example-61, (2S)-1-{2-[(1S,3R)-3-(1H-1,2,3,4-Tetrazol-1-ylmethyl)cyclopentylamino]acetyl}-pyrrolidine-2-carbonitrile], the IC50 was determined as 11.4 nM. The result for `N#C[C@@H]1CCCN1C(=O)CN[C@@H]1CC[C@H](Cn2nnc(-c3ccc(F)cc3)n2)C1` [Example-62, (2S)-1-(2-{(3S,1R)-3-[5-(4-Fluorophenyl)-2H-1,2,3,4-tetrazol-2-ylmethyl]cyclo-pentylamino}acetyl)pyrrolidine-2-carbonitrile] reads 8.73 nM; that for `N#C[C@@H]1CCCN1C(=O)CN[C@@H]1CC[C@H](Cn2cnnn2)C1` [Example-60, (2S)-1-{2-[(3S,1R)-3-(1H-1,2,3,4-Tetrazol-1-ylmethyl)cyclopentylamino]acetyl}-pyrrolidine-2-carbonitrile maleate], 4.12 nM. `Cc1ccc(C)n1C[C@H]1CC[C@@H](NCC(=O)N2C[C@@H](F)C[C@H]2C#N)C1` [Example-25, (2S,4S)-1-{2-[(3S,1R)-3-(2,5-Dimethyl-1H-1-pyrrolylmethyl)cyclopentylamino]-acetyl}-4-fluoropyrrolidine-2-carbonitrile]: the IC50 worked out at 7.4 nM. For `N#C[C@@H]1CCCN1C(=O)CN[C@H]1CC[C@@H](Cn2cccn2)C1` [Example-28, (2S)-1-{2-[(1S,3R)-3-(1H-Pyrazol-1-ylmethyl)cyclopentylamino]acetyl}pyrrolidine-2-carbonitrile], the IC50 worked out at 37.3 nM.

For the compound `N#C[C@@H]1CCCN1C(=O)CN[C@@H]1CC[C@H](Cn2cncn2)C1` [Example-37, (2S)-1-{2-[(3S,1R)-3-(1H-1,2,4-Triazol-1-ylmethyl)cyclopentylamino]acetyl}-pyrrolidine-2-carbonitrile], the IC50 was 5.1 nM. As for `N#C[C@@H]1CCCN1C(=O)CN[C@H]1CC[C@@H](Cn2cc3ccccc3n2)C1` [Example-68, (2S)-1-{2-[(1S,3R)-3-(2H-Indazol-2-ylmethyl)cyclopentylamino]acetyl}pyrrolidin-2-carbonitrile], the IC50 was 19.2 nM. In the case of `N#Cc1ncn(CC2CCC(NCC(=O)N3CCC[C@H]3C#N)C2)c1C#N` (mixture of isomers) [Example-33, 1-((1SR,3RS)-3-{2-[(2S)-2-Cyanopyrrolidin-1-yl]-2-oxoethylamino}cyclopentyl-methyl)-1H-4,5-imidazoledicarbonitrile], the IC50 is 5.05 nM. In the case of `N#C[C@@H]1CCCN1C(=O)CNC1CCC(C(=O)Nc2cc(F)ccc2F)C1` (mixture of isomers) [Example 73, 1-((1SR,3RS)-3-{2-[(2S)-2-Cyanopyrrolidin-1-yl)-2-oxoethylamino}cyclopentyl-carboxamido)-2,5-difluorobenzene], the IC50 amounted to 49.2 nM. Take `N#C[C@@H]1CCCN1C(=O)CN[C@H]1CC[C@@H](Cn2cncn2)C1` [Example-40, (2S)-1-{2-[(3R,1S)-3-(1H-1,2,4-Triazol-1-ylmethyl)cyclopentylamino]acetyl}-pyrrolidine-2-carbonitrile]: the concentration for half-maximal inhibition (IC50) is 12.5 nM. As to `N#C[C@@H]1CCCN1C(=O)CN[C@@H]1CC[C@H](CN2Cc3ccccc3C2)C1` [Example-65, (2S)-1-{2-[(3S,1R)-3-(2,3-Dihydro-1H-2-isoindolylmethyl)cyclopentylamino]acetyl}-pyrrolidine-2-carbonitrile], the concentration for half-maximal inhibition (IC50) was 13.2 nM. Regarding `N#C[C@@H]1CCCN1C(=O)CN[C@@H]1CC[C@H](CNC(=O)Nc2ccccc2)C1` [Example-13, N1-Phenyl-N3-((1S,3R)-3-{2-[(2S)-2-cyanopyrrolidin-1-yl]-2-oxoethylamino}-cyclopentylmethyl)urea], the IC50 came out at 31.9 nM. The value for `N#C[C@@H]1C[C@H](F)CN1C(=O)CN[C@@H]1CC[C@@H](Cn2cncn2)C1` [Example-53, (2S,4S)-4-Fluoro-1-{2-[(1R,3R)-3-(1H-1,2,4-Triazol-1-ylmethyl)cyclopentylamino]-acetyl}pyrrolidin-2-carbonitrile] was 5.12 nM; that for `CCCCc1nc(Cl)c(CO)n1CC1CCC(NCC(=O)N2CCC[C@H]2C#N)C1` (mixture of isomers) [Example-31, (2S)-1-{2-[(3SR,1RS)-3-(2-Butyl-4-chloro-5-hydroxymethyl-1H-1-imidazolylmethyl)-cyclopentylamino]acetyl}pyrrolidine-2-carbonitrile] was 10.1 nM. With `N#C[C@@H]1C[C@H](F)CN1C(=O)CN[C@@H]1CC[C@H](Cn2cncn2)C1` [Example-45, (2S,4S)-1-{2-[(3S,1R)-3-(1H-1,2,4-Triazol-1-ylmethyl)cyclopentylamino]acetyl}-4-fluoropyrrolidine-2-carbonitrile oxalate], the concentration for half-maximal inhibition (IC50) is 4.63 nM. For the compound `N#Cc1cccn1CC1CCC(NCC(=O)N2C[C@@H](F)C[C@H]2C#N)C1` (mixture of isomers) [Example-27, (2S,4S)-1-{2-[(3SR,1RS)-3-(2-Cyano-1H-pyrrol-1-ylmethyl)cyclopentylamino)-acetyl}-4-fluoropyrrolidine-2-carbonitrile], the IC50 is 3.44 nM.

As for `N#C[C@@H]1CCCN1C(=O)CNC1CCC(CN2CCC[C@H]2C(N)=O)C1` (mixture of isomers) [Example-10, (2S)-1-((1SR,3RS)-3-{2-[(2S)-2-Cyanopyrrolidin-1-yl]-2-oxoethylamino}cyclopentyl-methyl)pyrrolidine-2-carboxamide], the IC50 amounted to 64.4 nM. Take `N#CC[C@@H]1CC[C@H](NCC(=O)N2C[C@@H](F)C[C@H]2C#N)C1` [Example-8, (2S,4S)-1-{2-1[(3R,1S)-3-Cyanomethylcyclopentylamino]acetyl}-4-fluoro-2-pyrro-idinecarbonitrile]: the IC50 is 4.36 nM. Regarding `N#CCC[C@H]1CC[C@@H](NCC(=O)N2C[C@@H](F)C[C@H]2C#N)C1` [Example-9, 3-((1R,3R)-3-{2-[(2S,4S)-2-Cyano-4-fluoropyrrolidin-1-yl]-2-oxoethylamino}-cyclopentyl)propanenitrile], the IC50 came to 3.93 nM. For the compound `N#C[C@@H]1CCCN1C(=O)CNC1CCC(C(=O)N2CCC[C@H]2C#N)C1` (mixture of isomers) [Example-11], the IC50 is 103 nM. On to `N#C[C@@H]1CCCN1C(=O)CN[C@@H]1CC[C@H](CN2CCc3ccccc32)C1` [Example-63], for which the IC50 was found to be 21.9 nM.

As to `N#CC[C@H]1CC[C@@H](NCC(=O)N2C[C@@H](F)C[C@H]2C#N)C1` [Example-7, (2S,4S)-1-{2-[(3S,1R)-3-Cyanomethylcyclopentylamino]acetyl}-4-fluoro-2-pyrrol-idinecarbonitrile], the IC50 was determined as 4.29 nM.

With `N#C[C@@H]1CCCN1C(=O)CNC1CCC(C(=O)NOCc2ccccc2)C1` (mixture of isomers) [Example-12, N1-Benzyloxy-(1SR,3RS)-3-{2-[(2S)-2-cyanopyrrolidin-1-yl]-2-oxoethylamino}-cyclopentane-1-carboxamide], the IC50 was 145 nM.
